Drawing on patent US8093389B2, “Substituted spirochromanone derivatives” (Merck Sharp & Dohme Corp., priority 2007, dated 2012), this text covers inhibition for 18 compounds.

Each structure is given as a SMILES string. Structures can show the parent of a compound that is named as a salt.

In one test the target is human ACC2 (Homo sapiens, UniProt O00763). Nature of the test: Acetyl CoA carboxylase (ACC) activity inhibition test, human ACC2. It counts as biochemical. Particulars: 1 μmol/liter test compound; read-out: Inhibition (%) by 1 μmol/liter Chemical, human ACC2. Here is the method: (§1) A. Pharmacological Test Example (Acetyl CoA Carboxylase (ACC) Activity Inhibition Test)
(§2) A test compound is dissolved in dimethyl sulfoxide (DMSO) to a concentration of 10 mM and then diluted with DMSO to give a 100-fold concentrated solution of the compound compared with target assay concentration. The ACC enzyme activity inhibition test is carried out according to a modification of Thampy & Wakil's method (J. Biol. Chem., Vol. 260, pp. 6318-6323 (1985)). Concretely, 0.8 μl of the diluted test compound is added to each well of 96-well assay plate (Perkin Elmer Opti Plate), then 40 μl of a substrate solution (50 mM Hepes sodium (pH 7.5), 2 mM DTT, 10 mM ATP, 500 μM acetyl CoA, 0.17 mM NaH[^14C]O3 (58 mCi/mmol, by Amersham), 8 mM NaHCO3) is added to each well, and 40 μL of an enzyme solution (1 to 2 nM human ACC1 or human ACC2, 50 mM Hepes sodium (pH 7.5), 2 mM DTT, 40 mM MgCl2, 40 mM tripotassium citrate 1 mg/ml fetal bovine serum albumin) is added thereto. Then, the upper side of the plate is sealed up, and the plate is incubated with gently stirring at 37° C. for 40 minutes. Next, 20 μl of 1 N HCl is added to each well to stop the enzyme reaction, and the assay plate is stirred overnight to remove the unreacted NaH[^14C]O3. Next, 100 μl of a scintillator (Perkin Elmer's Microscinti 40) is added to each well and the plate is stirred, then the radioactivity of the fixed [^14C] is counted using a microplate scintillation counter (Perkin Elmer's Topcount), the radioactivity of which represents the enzyme activity in each well. The human ACC1 and human ACC2 enzyme-inhibition activities of the test compounds are calculated, based on the radioactivity of the well added by DMSO without test compound as a control.

In a further test the target is human ACC1 (Homo sapiens, UniProt Q13085). Nature of the test: Acetyl CoA carboxylase (ACC) activity inhibition test, human ACC1. Type of test: biochemical. Particulars: 1 μmol/liter test compound; read-out: Inhibition (%) by 1 μmol/liter Chemical, human ACC1. How it is done:
as §1, §2

human ACC2, sequence (O00763 whole entry): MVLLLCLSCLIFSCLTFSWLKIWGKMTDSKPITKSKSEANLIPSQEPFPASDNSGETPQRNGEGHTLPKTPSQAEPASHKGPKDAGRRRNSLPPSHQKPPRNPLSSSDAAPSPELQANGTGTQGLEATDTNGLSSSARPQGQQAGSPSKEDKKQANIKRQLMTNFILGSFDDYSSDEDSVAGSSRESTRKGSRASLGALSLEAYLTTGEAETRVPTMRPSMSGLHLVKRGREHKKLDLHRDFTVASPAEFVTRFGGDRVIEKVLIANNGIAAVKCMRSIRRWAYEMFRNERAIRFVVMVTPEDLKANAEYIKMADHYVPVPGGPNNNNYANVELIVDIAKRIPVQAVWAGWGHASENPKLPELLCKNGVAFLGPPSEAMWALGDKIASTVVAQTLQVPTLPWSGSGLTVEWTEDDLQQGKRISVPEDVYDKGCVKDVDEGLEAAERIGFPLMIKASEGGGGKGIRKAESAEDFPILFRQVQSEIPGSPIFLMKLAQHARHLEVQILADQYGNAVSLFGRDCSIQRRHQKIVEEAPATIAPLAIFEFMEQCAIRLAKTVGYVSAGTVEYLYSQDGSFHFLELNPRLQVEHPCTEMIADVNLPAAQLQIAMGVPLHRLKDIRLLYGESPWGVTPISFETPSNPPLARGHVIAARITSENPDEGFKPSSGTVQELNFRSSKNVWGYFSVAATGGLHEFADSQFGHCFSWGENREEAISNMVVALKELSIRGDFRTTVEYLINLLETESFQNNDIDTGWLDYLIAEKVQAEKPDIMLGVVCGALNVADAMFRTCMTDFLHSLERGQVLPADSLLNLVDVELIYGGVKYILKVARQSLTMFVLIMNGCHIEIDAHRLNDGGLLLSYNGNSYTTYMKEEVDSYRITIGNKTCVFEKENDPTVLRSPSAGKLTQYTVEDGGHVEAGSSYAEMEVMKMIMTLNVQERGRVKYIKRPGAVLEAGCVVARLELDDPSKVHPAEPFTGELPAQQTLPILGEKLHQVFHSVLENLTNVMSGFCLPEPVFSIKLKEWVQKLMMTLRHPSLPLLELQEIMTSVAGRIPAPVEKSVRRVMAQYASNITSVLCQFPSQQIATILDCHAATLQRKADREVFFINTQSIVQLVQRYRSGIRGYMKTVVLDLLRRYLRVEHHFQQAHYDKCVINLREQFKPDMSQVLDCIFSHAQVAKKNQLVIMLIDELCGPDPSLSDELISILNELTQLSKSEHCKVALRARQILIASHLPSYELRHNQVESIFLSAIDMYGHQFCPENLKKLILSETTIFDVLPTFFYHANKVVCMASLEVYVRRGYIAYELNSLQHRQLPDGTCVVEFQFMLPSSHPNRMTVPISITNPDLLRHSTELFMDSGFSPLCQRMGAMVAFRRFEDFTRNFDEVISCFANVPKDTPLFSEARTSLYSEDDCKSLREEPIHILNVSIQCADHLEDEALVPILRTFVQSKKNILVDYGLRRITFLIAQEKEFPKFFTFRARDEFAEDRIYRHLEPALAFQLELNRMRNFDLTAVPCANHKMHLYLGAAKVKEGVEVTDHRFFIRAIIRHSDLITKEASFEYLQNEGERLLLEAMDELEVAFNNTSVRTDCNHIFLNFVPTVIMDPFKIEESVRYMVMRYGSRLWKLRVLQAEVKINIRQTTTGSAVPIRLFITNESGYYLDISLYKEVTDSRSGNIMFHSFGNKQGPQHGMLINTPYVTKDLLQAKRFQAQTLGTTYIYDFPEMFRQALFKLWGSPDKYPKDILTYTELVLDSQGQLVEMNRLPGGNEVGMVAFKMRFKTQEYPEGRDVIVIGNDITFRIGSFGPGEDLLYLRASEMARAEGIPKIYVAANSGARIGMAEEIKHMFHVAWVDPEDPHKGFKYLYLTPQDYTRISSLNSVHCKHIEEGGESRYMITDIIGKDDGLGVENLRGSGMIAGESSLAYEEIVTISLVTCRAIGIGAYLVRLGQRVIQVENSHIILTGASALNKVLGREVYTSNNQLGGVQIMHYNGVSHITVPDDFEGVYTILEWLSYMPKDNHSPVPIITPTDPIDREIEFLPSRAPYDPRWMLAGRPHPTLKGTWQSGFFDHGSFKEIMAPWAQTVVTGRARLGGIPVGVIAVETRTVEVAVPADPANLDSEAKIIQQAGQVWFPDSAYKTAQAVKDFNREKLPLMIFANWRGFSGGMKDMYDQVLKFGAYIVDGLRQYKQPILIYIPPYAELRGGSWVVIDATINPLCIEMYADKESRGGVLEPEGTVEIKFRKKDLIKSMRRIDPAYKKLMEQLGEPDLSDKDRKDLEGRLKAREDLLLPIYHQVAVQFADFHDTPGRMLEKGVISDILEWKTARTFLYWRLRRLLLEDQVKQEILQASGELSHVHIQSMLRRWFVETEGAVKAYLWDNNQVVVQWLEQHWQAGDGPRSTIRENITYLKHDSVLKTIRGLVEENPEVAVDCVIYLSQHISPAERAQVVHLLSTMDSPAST

Turning to `COc1cc(C(=O)N2CCC3(CC2)CC(=O)c2cc(-c4nnc(C(N)=O)[nH]4)ccc2O3)cc2c1ccn2C1CC1` [Example 57, 5-{1′-[(1-cyclopropyl-4-methoxy-1H-indol-6-yl)carbonyl]-4-oxo-spiro[chroman-2,4′-piperidin]-6-yl}-4H-1,2,4-triazole-3-carboxamide], the inhibition at 1 µM at human ACC2 and at human ACC1 was 99% throughout.
Regarding `CCn1ccc2c(OC)cc(C(=O)N3CCC4(CC3)CC(=O)c3cc(-c5nnn[nH]5)ccc3O4)cc21` [Example 56, 1′-[(1-ethyl-4-methoxy-1H-indol-6-yl)carbonyl]-6-(1H-tetrazol-5-yl)spiro[chroman-2,4′-piperidin]-4-one], the inhibition at 1 µM on human ACC2 and on human ACC1 was 99% throughout.
For the compound `COc1cc(C(=O)N2CCC3(CC2)CC(=O)c2cc(-c4cccc(C(=O)O)c4)ccc2O3)cc2c1ccn2C1CC1` [Example 5, Sodium 3-{1′-[(1-cyclopropyl-4-methoxy-1H-indol-6-yl)carbonyl]-4-oxospiro[chroman-2,4′-piperidin]-6-yl}benzoate], the inhibition at 1 µM at human ACC2 and at human ACC1 was 99% throughout.
`CCOc1cc(C(=O)N2CCC3(CC2)CC(=O)c2cc(-c4nnn[nH]4)ccc2O3)cc2c1c(C)cn2C1CC1` [Example 17, 1′-[(1-Cyclopropyl-4-ethoxy-3-methyl-1H-indol-6-yl)carbonyl]-6-(1H-tetrazol-5-yl)spiro[chroman-2,4′-piperidin]-4-one]: the inhibition at 1 µM at human ACC2 was found to be 99%; on human ACC1, 98%.
`CCn1ccc2c(OCCO)cc(C(=O)N3CCC4(CC3)CC(=O)c3cc(-c5nnn[nH]5)ccc3O4)cc21` [Example 4, 1′-{[1-Ethyl-4-(2-hydroxyethoxy)-1H-indol-6-yl]carbonyl}-6-(1H-tetrazol-5-yl)spiro[chroman-2,4′-piperidin]-4-one]: the values for the inhibition at 1 µM on human ACC2 and at human ACC1 were 97% and 96%, respectively.
As to `COc1cc(C(=O)N2CCC3(CC2)CC(=O)c2cc(-c4nnn[nH]4)ccc2O3)cn2c(C3CC3)cnc12` [Example 2, 1′-[(3-Cyclopropyl-8-methoxyimidazo[1,2-a]pyridin-6-yl)carbonyl]-6-(1H-tetrazol-5-yl)spiro[chroman-2,4′-piperidin]-4-one], the inhibition at 1 µM at human ACC2 and on human ACC1 was 93% in each case.
With `CCOc1cc(C(=O)N2CCC3(CC2)CC(=O)c2cc(-c4nnn[nH]4)ccc2O3)cc2c1ccn2C1CC1` [Example 13, 1′-[(1-Cyclopropyl-4-ethoxy-1H-indol-6-yl)carbonyl]-6-(1H-tetrazol-5-yl)spiro[chroman-2,4′-piperidin]-4-one], the inhibition at 1 µM at human ACC2 is 99%; at human ACC1 it was 100%.
Regarding `COc1cc(C(=O)N2CCC3(CC2)CC(=O)c2cc(-c4nnn[nH]4)ccc2O3)cc2c1ccn2OC` [Example 8, 1′-{[1,4-Dimethoxy-1H-indol-6-yl]carbonyl}-6-(1H-tetrazol-5-yl)spiro[chroman-2,4′-piperidin]-4-one], the inhibition at 1 µM on human ACC2 and at human ACC1 was 99% in each case.
As to `COc1cc(C(=O)N2CCC3(CC2)CC(=O)c2cc(-c4cncc(C(=O)O)c4)ccc2O3)cc2c1c(Cl)cn2C1CC1` [Example 24, 5-{1′-[(3-Chloro-1-cyclopropyl-4-methoxy-1H-indol-6-yl)carbonyl]-4-oxo-spiro[chroman-2,4′-piperidin]-6-yl}nicotinic acid sodium salt], the inhibition at 1 µM came out at 100% on human ACC2 and 99% on human ACC1.
As for `COc1cc(C(=O)N2CCC3(CC2)CC(=O)c2cc(-c4noc(=O)[nH]4)ccc2O3)cc2c1ccn2C1CC1` [Example 3, 1′-[(1-Cyclopropyl-4-methoxy-1H-indol-6-yl)carbonyl]-6-(5-oxo-4,5-dihydro-1,2,4-oxadiazol-3-yl)spiro[chroman-2,4′-piperidin]-4-one], the figures for the inhibition at 1 µM on human ACC2 and on human ACC1 were 97% and 100%, respectively.
With `COc1cc(C(=O)N2CCC3(CC2)CC(=O)c2cc(-c4cncc(C(=O)O)c4)ccc2O3)cc2c1c(C)cn2C1CC1` [Example 23, 5-{1′-[(1-Cyclopropyl-4-methoxy-3-methyl-1H-indol-6-yl)carbonyl]-4-oxo-spiro[chroman-2,4′-piperidin]-6-yl}nicotinic acid sodium salt], the values for the inhibition at 1 µM on human ACC2 and at human ACC1 were 98% and 99%, respectively.
As to `O=C1CC2(CCN(C(=O)c3cc(OCCO)c4ccn(C5CC5)c4c3)CC2)Oc2ccc(-c3nnn[nH]3)cc21` [Example 36], the inhibition at 1 µM at human ACC2 and at human ACC1 was 99% throughout.
For the compound `COc1cc(C(=O)N2CCC3(CC2)CC(=O)c2cc(-c4nnn[nH]4)ccc2O3)cc2c1ccn2C1CC1` [Example 11, 1′-[(1-Cyclopropyl-4-methoxy-1H-indol-6-yl)carbonyl]-6-(1H-tetrazol-5-yl)spiro[chroman-2,4′-piperidin]-4-one], the inhibition at 1 µM at human ACC2 turned out to be 98%; on human ACC1 it was 99%.
For the compound `CCOc1cc(C(=O)N2CCC3(CC2)CC(=O)c2cc(-c4cncc(C(=O)O)c4)ccc2O3)cc2c1c(C)cn2C1CC1` [Example 45, 5-{1′-[(1-cyclopropyl-4-ethoxy-3-methyl-1H-indol-6-yl)carbonyl]-4-oxospiro[chroman-2,4′-piperidin]-6-yl}nicotinic acid], the inhibition at 1 µM at human ACC2 and at human ACC1 was 100% in each case.
As to `CCn1cnc2c(OC)cc(C(=O)N3CCC4(CC3)CC(=O)c3cc(-c5nnn[nH]5)ccc3O4)cc21` [Example 1, 1-[(1-Ethyl-4-methoxy-1H-benzimidazol-6-yl)carbonyl]-6-(1H-tetrazol-5-yl)spiro[chroman-2,4′-piperidine]-4-one], the inhibition at 1 µM amounted to 89% on human ACC2 and 91% on human ACC1.
For `CCOc1cc(C(=O)N2CCC3(CC2)CC(=O)c2cc(-c4nnn[nH]4)ccc2O3)cc2c(C3CC3)noc12` [Example 31, 1′-[(3-cyclopropyl-7-ethoxy-1,2-benzisoxazol-5-yl)carbonyl]-6-(1H-tetrazol-5-yl)spiro[chroman-2,4′-piperidin]-4-one], the inhibition at 1 µM on human ACC2 was 98%; at human ACC1, 97%.
As for `CCn1ncc2c(OC)cc(C(=O)N3CCC4(CC3)CC(=O)c3cc(-c5nnn[nH]5)ccc3O4)cc21` [Example 10, 1′-[(1-Ethyl-4-methoxy-1H-indazol-6-yl)carbonyl]-6-(1H-tetrazol-5-yl)spiro[chroman-2,4′-piperidin]-4-one], the inhibition at 1 µM on human ACC2 turned out to be 96%; on human ACC1, 93%.
Take `COc1cc(C(=O)N2CCC3(CC2)CC(=O)c2cc(-c4cncc(C(=O)O)c4)ccc2O3)cc2c1ccn2C1CC1` [Example 7, 5-{1′-[(1-Cyclopropyl-4-methoxy-1H-indol-6-yl)carbonyl]-4-oxospiro[chroman-2,4′-piperidin]-6-yl}nicotinic acid sodium salt]: the results for the inhibition at 1 µM on human ACC2 and on human ACC1 were 99% and 100%, respectively.
